Measurements taken from article PMC5356443, “Structural, mechanistic and functional insight into gliotoxin bis-thiomethylation in Aspergillus fumigatus” (Open Biology, 2017).

Columns and labels:
[1] = target: GtmA (gliotoxin S-methyltransferase, TmtA) (Aspergillus fumigatus, UniProt Q4X158); assay: RP-HPLC methyltransferase assay with purified enzyme, Km determination; format: biochemical
[2] = test system: [H][C@]12C(=CC=C[C@@H]1O)C[C@@]1(S)C(=O)N(C)[C@@](S)(CO)C(=O)N12; assay: as above; format: biochemical, Aspergillus fumigatus; conditions: SAM

Chain of GtmA (gliotoxin S-methyltransferase, TmtA) (Q4X158 whole entry): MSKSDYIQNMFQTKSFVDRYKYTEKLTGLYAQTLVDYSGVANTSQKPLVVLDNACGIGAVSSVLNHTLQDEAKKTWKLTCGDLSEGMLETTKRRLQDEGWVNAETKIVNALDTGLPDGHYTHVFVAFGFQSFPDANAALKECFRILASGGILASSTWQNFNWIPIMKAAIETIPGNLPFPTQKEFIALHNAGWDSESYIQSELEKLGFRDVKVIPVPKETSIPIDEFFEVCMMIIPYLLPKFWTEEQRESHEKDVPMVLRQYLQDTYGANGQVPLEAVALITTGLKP

| Compound | Km [1] | Km [2] |
| --- | --- | --- |
| CS[C@@]12CC3=CC=C[C@H](O)[C@H]3N1C(=O)[C@](S)(CO)N(C)C2=O [MmGT, monomethylgliotoxin] | 184 µM |  |
| GtmA (gliotoxin S-methyltransferase, TmtA) (Aspergillus fumigatus Af293) |  | 38.62 µM |
